These are literature values, as cited in patent publication US7584087B2, “Structure of protein kinase C theta” (Wyeth, priority 2004, dated 2009).

The structures appear in SMILES notation.

Common to all, as to details: result in words, from Meggio et al. 1995
Data set [1] relates to casein kinase 2 (CK2).
The subject of data set [2] is PKC isoforms.
The subject of data set [3] is casein kinase 1 (CK1).
Data set [4] concerns the target CSK (Homo sapiens, UniProt P41240).
The subject of data set [5] is mitogen-activated protein kinase (MAPK).

Chain of CSK (P41240 whole entry, species assumed): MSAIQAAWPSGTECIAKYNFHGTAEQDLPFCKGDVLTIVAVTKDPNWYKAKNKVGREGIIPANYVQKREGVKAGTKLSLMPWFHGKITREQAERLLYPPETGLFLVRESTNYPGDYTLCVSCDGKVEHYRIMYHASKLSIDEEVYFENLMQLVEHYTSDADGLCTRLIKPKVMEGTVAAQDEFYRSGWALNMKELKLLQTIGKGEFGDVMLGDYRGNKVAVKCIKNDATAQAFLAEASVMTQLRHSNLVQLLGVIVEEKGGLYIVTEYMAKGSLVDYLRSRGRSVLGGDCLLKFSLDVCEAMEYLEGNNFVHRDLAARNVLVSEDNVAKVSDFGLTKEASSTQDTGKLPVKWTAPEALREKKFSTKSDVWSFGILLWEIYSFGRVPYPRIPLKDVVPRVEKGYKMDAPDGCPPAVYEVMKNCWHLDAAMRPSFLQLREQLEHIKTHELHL

Turning to `CN[C@@H]1C[C@H]2O[C@@](C)([C@@H]1OC)n1c3ccccc3c3c4c(c5c6ccccc6n2c5c31)C(=O)NC4` [Staurosporine, staurosporine], the “potency against casein kinase 2 (CK2)” value in data set [1] was “micromolar”. For the same compound, the “potency against PKC isoforms” value in data set [2] is listed as “low nanomolar”. The “potency against casein kinase 1 (CK1)” value in data set [3] is given as “micromolar”. Moreover, the “potency against CSK” value in data set [4] was “micromolar”. For the same compound, the “potency against mitogen-activated protein kinase (MAPK)” value in data set [5] was “micromolar”.
